Where “and” joins values, the source holds several entries; their conditions need not be identical. Identical values can stand only once.
Tests used:
[1] = test system: LPS-induced NO production in RAW264.7 cells; experiment: LPS-induced NO production in RAW264.7 cells (Griess reaction); type: cell-based
Protocol: The inhibitory activities of compounds 1–16 on LPS stimulated macrophages was determined by Griess reaction. The NO content was detected by the NO kit according to the protocol described earlier ([23]). RAW264.7 cells obtained from the China Center for Cultivated Studies (Shanghai, China) were maintained in DMEM containing 10% FBS, and under 5% CO2 at 37°C. Briefly, the cells were seeded in a 96-well plate (1 × 10^5 cells/well), after 8 h of pre-incubation under 5% CO2 at 37°C, compounds 1–16 were added to the well plate, respectively, for 12 h. […] The supernatant of the cell culture were collected 24 h later.

[2] = test system: RAW264.7 cells; experiment: RAW264.7 cell viability, SRB assay; type: cell-based
Protocol: The cytotoxicity of limonin 2 to RAW264.7 cells was detected by SRB assay. […] Therefore, compound 2 of 0–20 μm was used in subsequent experiments to avoid the influence of cytotoxic and anti-inflammatory effect detection.
Fig. 2 Effect of compound 2 on RAW264.7 cells viability. RAW264.7 cells were treated by assigned concentration of compound 2 or DMSO for 24 h. The data are expressed as the mean ± SEM (n = 3). The cells viability (%) = (ODcompound 2 – ODDMSO)/ODDMSO ×100. *P < 0.05,**P < 0.01 compared with control cells treated by DMSO. Statistical differences were analyzed by unpaired t-test.

[3] = test system: IL-6; experiment: IL-6 production in LPS-induced macrophages, ELISA; type: cell-based; details: compound 2 at 2.3 and 9.2 μmol/L, LPS 1 μg/mL, 24 h, Fig. 3C
Protocol: (§1) After 8 h of pre-incubation under 5% CO2 at 37°C, limonin 2 was added to the well plate, respectively, for 12 h. Then the cell of administration group and model group were induced with LPS (2 µg/mL) and the control group was treated with DMSO as contrast. The cell supernatants of samples were collected to detect the content of IL-6 and TNF-α by ELISA according to manufacturer protocol. And the normal range of IL-6 and TNF-αELISA kits is 3.75–120 pg/mL and 20–640 pg/mL, respectively.
(§2) Fig. 3 Effects of compound 2 on the production of TNF-α, NO and IL-6 in LPS-induced macrophages. The macrophages were incubated with LPS (1 μg/mL) and treated with compound 2 (2.3 and 9.2 μmol/L) for 24 h. Indomethacin (INM) was used as the positive control. (A) The levels of TNF-α, (B) NO, and (C) IL-6 in the supernatant were assayed using ELISA kits. All values given are the mean ± SEM. *P <0.05, **P <0.01 compared with the LPS group.

[4] = test system: TNF-α; experiment: TNF-α production in LPS-induced macrophages, ELISA; type: cell-based; details: compound 2 at 2.3 and 9.2 μmol/L, LPS 1 μg/mL, 24 h, Fig. 3A
Protocol: as §1, §2

[5] = test system: NF-κB p-P65; experiment: Western blot, NF-κB p-P65 in LPS-treated macrophages; type: cell-based; details: Fig. 4
Protocol: (§3) Western blot analysis was performed to observe the activities of limonin 2 on NF-κB P65, JAK, STAT, IKBα, IKKα, iNOS and eNOS protein levels. Macrophages were dispersed in 6 well plates for 24 h. After incubation, the cells were processed by HFPS and treated with LPS for 24 h. After treatment, cells were harvested and lysed. Western blot analysis was based on the methods described previously ([24]).
(§4) The NF-κB signaling cascade plays an important role in the adjustment of inflammation ([43], [44]). The expression of NF-κB P65, IKB, and IKKα were measured by Western blot to investigate the anti-inflammatory mechanism of limonin 2. […] Limonin 2 inhibited the phosphorylation and degradation of IKBα (Fig. 4A, D and E) and IKKα (Fig. 4A, F and G).

[6] = test system: IKBα; experiment: Western blot, IKBα in LPS-treated macrophages; type: cell-based; details: Fig. 4
Protocol: as §3, §4

[7] = test system: IKKα; experiment: Western blot, IKKα in LPS-treated macrophages; type: cell-based; details: Fig. 4
Protocol: as §3, §4

[8] = test system: JAK2; experiment: Western blot, JAK2 in LPS-treated macrophages; type: cell-based; details: LPS-treated RAW264.7 cells, Fig. 5
Protocol: as §3
(§5) To study the effect of limonin 2 on the STAT signaling cascades of LPS-treated macrophage, the levels of JAK2 and STAT3 was measured ([45]).

[9] = test system: STAT3; experiment: Western blot, STAT3 in LPS-treated macrophages; type: cell-based; details: LPS-treated RAW264.7 cells, Fig. 5
Protocol: as §3, §5

[10] = test system: iNOS; experiment: Western blot, iNOS in LPS-treated macrophages; type: cell-based; details: Fig. 6
Protocol: as §3
(§6) To study the effect of limonin 2 on eNOS signaling cascade on LPS treated macrophages ([46]), the level of eNOS was measured. The upregulation of iNOS expression in LPS-treated macrophage was observed (Fig. 6A and B). Compound 2 inhibited the expression of iNOS stimulated by LPS in macrophage. At the same time, downregulation of eNOS protein expression was also found in LPS-stimulated macrophages (Fig. 6A and C).

[11] = test system: eNOS; experiment: Western blot, eNOS in LPS-treated macrophages; type: cell-based; details: LPS-stimulated macrophages, Fig. 6
Protocol: as §3, §6

[12] = Cytotoxicity, SRB method, Huh-7; type: cell-based, human; details: human, Huh-7 (hepatoma) cells
Protocol: (§7) Huh-7 (hepatoma), MCF-7 (human breast), KB (oral epithelial), Hela (cervical), H460 (lung), A-549 (lung), and HepG2 (hepatocellular) cancer cell lines (provided by Shanghai Cell Bank) were maintained in RPMI 1640 at 37 ℃, supplemented with 10% FBS. Cytotoxicity was determined by the SRB method, with 5-fluorouracil (5-FU) as a positive control. The IC50 value was calculated using the GraphPad prism program.

[13] = Cytotoxicity, SRB method, HepG2; type: cell-based, human; details: human, HepG2 (hepatocellular) cells
Protocol: as §7

[14] = Cytotoxicity, SRB method, KB; type: cell-based, human; details: human, KB (oral epithelial) cells
Protocol: as §7

[15] = Cytotoxicity, SRB method, H460; type: cell-based, human; details: human, H460 (lung) cells
Protocol: as §7

[16] = Cytotoxicity, SRB method, Hela; type: cell-based, human; details: human, Hela (cervical) cells
Protocol: as §7

[17] = Cytotoxicity, SRB method, A549; type: cell-based, human; details: human, A-549 (lung) cells
Protocol: as §7

[18] = Cytotoxicity, SRB method, MCF-7; type: cell-based, human; details: human, MCF-7 (human breast) cells
Protocol: as §7

IC50 ([1]; Mus musculus, RAW264.7 cells, LPS 2 µg/mL, supernatant after 24 h, read-out: IC50, inhibitory activity on LPS-induced NO production in RAW264.7 cells): 4.58 ± 0.72 µM
Structure (SMILES): CCC(=O)OC1C2(O)C(OC(=O)C=CC(C)C)C3(C)CC24OC2(C)OC15C1CC(=O)OC(C6=CC(O)OC6=O)C1(C)CCC5(O2)C4(C)C3CC(=O)OC (centres unmarked) [Compound 2, Chukrasin F]
production of NO in LPS-treated macrophages (in words) ([1]; compound 2 at 2.3 and 9.2 μmol/L, LPS 1 μg/mL, 24 h, Fig. 3B): notably inhibited
viability of RAW264.7 cells (in words) ([2]; compound 2 at 0–20 μm, within 24 h): not notably affected
relative survival rate of RAW264.7 cells ([2]; limonin 2 at 5 ~ 200 μM (seven rising concentrations, not listed singly), 24 h, SRB): 100.7% and 96.3% and 93.9% and 88.0% and 76.4% and 64.4% and 56.7%
production of IL-6 in LPS-treated macrophages (in words) [3]: notably inhibited
production of TNF-α in LPS-treated macrophages (in words) [4]: notably inhibited
expression of NF-κB p-P65 (in words) [5]: downregulates
phosphorylation and degradation of IKBα (in words) [6]: inhibited
phosphorylation and degradation of IKKα (in words) [7]: inhibited
expression level of JAK2 (in words) [8]: notably reduced
expression level of STAT3 (in words) [9]: notably reduced
expression of iNOS stimulated by LPS (in words) [10]: inhibited
eNOS protein expression (in words) [11]: completely restored
IC50 [12]: 72.1 ± 13.5 µM
IC50 [13]: 69.4 ± 10.6 µM
IC50 [14]: 39.2 ± 2.17 µM
IC50 [15]: 60.8 ± 6.96 µM
IC50 [16]: 33.2 ± 8.41 µM
IC50 [17]: 54.7 ± 10.1 µM
IC50 [18]: 23.4 ± 5.81 µM

Reference: article PMC10392864, “Chukrasia tabularis limonoid plays anti-inflammatory role by regulating NF-κB signaling pathway in lipopolysaccharide-induced macrophages” (Food & Nutrition Research, 2023)
